These results are taken from patent publication US20250275959A1, “COMPOUNDS AND METHODS OF THEIR USE” (LEXICON PHARMACEUTICALS, INC., priority 2024, published 2025).

hACSL5, sequence (Q9ULC5 33-683): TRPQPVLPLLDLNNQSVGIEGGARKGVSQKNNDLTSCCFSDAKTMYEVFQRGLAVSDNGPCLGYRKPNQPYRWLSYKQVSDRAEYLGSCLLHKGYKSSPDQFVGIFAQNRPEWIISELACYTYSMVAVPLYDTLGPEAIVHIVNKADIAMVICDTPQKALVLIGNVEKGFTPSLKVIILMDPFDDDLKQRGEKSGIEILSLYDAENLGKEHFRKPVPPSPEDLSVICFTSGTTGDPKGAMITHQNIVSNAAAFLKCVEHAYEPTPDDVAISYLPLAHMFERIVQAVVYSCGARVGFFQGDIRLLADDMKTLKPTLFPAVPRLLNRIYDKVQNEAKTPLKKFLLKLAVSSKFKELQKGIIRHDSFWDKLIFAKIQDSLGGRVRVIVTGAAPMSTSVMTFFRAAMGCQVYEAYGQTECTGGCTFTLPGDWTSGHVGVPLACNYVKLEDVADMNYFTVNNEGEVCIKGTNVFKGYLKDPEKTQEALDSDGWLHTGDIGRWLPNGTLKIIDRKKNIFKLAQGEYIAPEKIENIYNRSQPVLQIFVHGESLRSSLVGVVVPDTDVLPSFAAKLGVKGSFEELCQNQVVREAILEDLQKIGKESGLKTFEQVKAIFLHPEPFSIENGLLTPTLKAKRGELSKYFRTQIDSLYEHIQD

The assay deals with hACSL5 (Homo sapiens (Human), UniProt Q9ULC5). The assay is described as follows: Human ACSL5 coupled enzyme Amplex Red assay. It is filed as biochemical. As to conditions: read-out: hACSL5 IC50. As for the experimental part:
Human ACSL5 (33-683) was cloned with a C-terminal 6 His tag and expressed in insect cells (sf9) as per standard insect cell expression protocols. Human ACSL5 was enriched by affinity nickel affinity chromatography followed by Superdex S200 gel filtration column equilibrated in 20 mM HEPES pH 7.8, 500 mM NaCl, 1 mM TCEP, 5% glycerol, 0.1% Triton X^100.
Inhibition of ACSL5 enzyme activity was monitored with a coupled enzyme Amplex Red assay.
The assay is carried out in 384-well microtiterplates. In a total volume of […], compounds are preincubated with 20 nM ACSL5, in a buffer containing 150 mM MOPS-NaOH, 12 mM MgCl2, 0.03% (v/v) Triton X-100, 2.79 U mL-1 Peroxidase and 24 U mL-1 Acyl-CoA Oxidase (pH 7.6). The reaction is started by the addition of substrate and co factors (25 μM oleate, 30 μM CoA, 1 mM ATP and 50 μM Amplex Red) and the fluorescence detected after 10 minutes at 25° C. with a fluorescence reader (BMG-Fluostar; BMG-Technologies) using an excitation wavelength of 535 nm and an emission wavelength of 590 nm.
Concentration-response titration points for each compound tested were filled to the Hill equation yielding concentrations of half maximal inhibition […] and maximal inhibition values.
Regarding `CC[C@@H](Oc1ccc(C(=O)NS(=O)(=O)N2CCC(OC3CN(C)C3)CC2)c(F)c1F)c1ccc(Oc2ccccn2)cn1` [(R)-2,3-difluoro-N-((4-((1-methylazetidin-3-yl)oxy)piperidin-1-yl)sulfonyl)-4-(1-(5-(pyridin-2-yloxy)pyridin-2-yl)propoxy)benzamide], the IC50 (in general, the concentration that gives 50% inhibition) was < 0.1 µM.
In the case of `CC[C@@H](Oc1ccc(C(=O)NS(=O)(=O)N2CC3=C(CN(C)C3)C2)c(F)c1F)c1ccc(Oc2ccccn2)cn1` [(R)-2,3-difluoro-N-((5-methyl-3,4,5,6-tetrahydropyrrolo[3,4-c]pyrrol-2(1H)-yl)sulfonyl)-4-(1-(5-(pyridin-2-yloxy)pyridin-2-yl)propoxy)benzamide], the half-maximal inhibitory concentration (IC50) fell in the range of 0.1 to 0.5 µM.
With `CC[C@@H](Oc1ccc(C(=O)NS(=O)(=O)N2CC3(CN(C)C3)C2)c(F)c1F)c1ccc(Oc2ccccn2)cn1` [(R)-2,3-difluoro-N-((6-methyl-2,6-diazaspiro[3.3]heptan-2-yl)sulfonyl)-4-(1-(5-(pyridin-2-yloxy)pyridin-2-yl)propoxy)benzamide], the IC50 lay within 0.1 to 0.5 µM.
Then `CC[C@@H](Oc1ccc(C(=O)NS(=O)(=O)N2CC(OC3CCN(C)CC3)C2)c(F)c1F)c1ccc(OCC2CC2)cn1` [(R)-4-(1-(5-(cyclopropylmethoxy)pyridin-2-yl)propoxy)-2,3-difluoro-N-((3-((1-methylpiperidin-4-yl)oxy)azetidin-1-yl)sulfonyl)benzamide], with 0.1 to 0.5 µM; and `CC[C@@H](Oc1ccc(C(=O)NS(=O)(=O)c2ccc(OCCNC)cc2)c(F)c1F)c1ccc(OCC2CC2)cn1` [(R)-4-(1-(5-(cyclopropylmethoxy)pyridin-2-yl)propoxy)-2,3-difluoro-N-((4-(2-(methylamino)ethoxy)phenyl)sulfonyl)benzamide], with < 0.1 µM.
For `CC[C@@H](Oc1ccc(C(=O)NS(=O)(=O)N2CCC(OCCN3CCCC3)CC2)c(F)c1F)c1ccc(OCC2CC2)cn1` [(R)-4-(1-(5-(cyclopropylmethoxy)pyridin-2-yl)propoxy)-2,3-difluoro-N-((4-(2-(pyrrolidin-1-yl)ethoxy)piperidin-1-yl)sulfonyl)benzamide] the value was 0.1 to 0.5 µM; for `CC[C@@H](Oc1ccc(C(=O)NS(=O)(=O)N2CCN(CCCF)CC2)c(F)c1F)c1ccc(OCC2CC2)cn1` [(R)-4-(1-(5-(cyclopropylmethoxy)pyridin-2-yl)propoxy)-2,3-difluoro-N-((4-(3-fluoropropyl)piperazin-1-yl)sulfonyl)benzamide], < 0.1 µM; for `CC[C@@H](Oc1ccc(C(=O)NS(=O)(=O)N2CCC(OC3CN(C)C3)CC2)c(F)c1F)c1ccc(OCC2CC2)cn1` [(R)-4-(1-(5-(cyclopropylmethoxy)pyridin-2-yl)propoxy)-2,3-difluoro-N-((4-((1-methylazetidin-3-yl)oxy)piperidin-1-yl)sulfonyl)benzamide], 0.1 to 0.5 µM.
Consider `CC[C@@H](Oc1ccc(C(=O)NS(=O)(=O)N2CC3=C(CN(C)C3)C2)c(F)c1F)c1ccc(OCC2CC2)cn1` [(R)-4-(1-(5-(cyclopropylmethoxy)pyridin-2-yl)propoxy)-2,3-difluoro-N-((5-methyl-3,4,5,6-tetrahydropyrrolo[3,4-c]pyrrol-2(1H)-yl)sulfonyl)benzamide], for which the IC50 lay in the range of 0.1 to 0.5 µM.
For `CC[C@@H](Oc1ccc(C(=O)NS(=O)(=O)N2CC3(CN(C)C3)C2)c(F)c1F)c1ccc(OCC2CC2)cn1` [(R)-4-(1-(5-(cyclopropylmethoxy)pyridin-2-yl)propoxy)-2,3-difluoro-N-((6-methyl-2,6-diazaspiro[3.3]heptan-2-yl)sulfonyl)benzamide] the value was 0.1 to 0.5 µM; for `CC[C@@H](Oc1ccc(C(=O)NS(=O)(=O)N2CCC(OCCN(C)C)CC2)c(F)c1F)c1ccc(OCCOC)cn1` [(R)-N-((4-(2-(dimethylamino)ethoxy)piperidin-1-yl)sulfonyl)-2,3-difluoro-4-(1-(5-(2-methoxyethoxy)pyridin-2-yl)propoxy)benzamide], > 0.5 µM; for `CC(Oc1ccc(C(=O)NS(=O)(=O)CCN)c(Cl)c1Cl)c1cccc(Oc2ccccc2)c1` (centres unmarked) [N-((2-aminoethyl)sulfonyl)-2,3-dichloro-4-(1-(3-phenoxyphenyl)ethoxy)benzamide], 0.1 to 0.5 µM.
Then `CC(Oc1ccc(C(=O)NS(=O)(=O)CCCN2CCOCC2)cc1C(F)(F)F)c1ccc(Oc2cccnn2)cn1` (centres unmarked) [N-((3-morpholinopropyl)sulfonyl)-4-(1-(5-(pyridazin-3-yloxy)pyridin-2-yl)ethoxy)-3-(trifluoromethyl)benzamide], with 0.1 to 0.5 µM; and `NCCc1ccc(S(=O)(=O)NC(=O)c2ccc(OCc3cccc(Oc4ccccc4)c3)c(F)c2F)cc1` [N-((4-(2-aminoethyl)phenyl)sulfonyl)-2,3-difluoro-4-((3-phenoxybenzyl)oxy)benzamide], with 0.1 to 0.5 µM; and `CN(C)Cc1ccc(S(=O)(=O)NC(=O)c2ccc(OCc3cccc(Oc4ccccc4)c3)c(F)c2F)cc1` [N-((4-((dimethylamino)methyl)phenyl)sulfonyl)-2,3-difluoro-4-((3-phenoxybenzyl)oxy)benzamide], with 0.1 to 0.5 µM.
Consider `CC(COc1ccc(C(=O)NS(=O)(=O)c2ccc(CN)cc2)c(Cl)c1Cl)c1cccc(Oc2ccccc2)c1` (centres unmarked) [N-((4-(aminomethyl)phenyl)sulfonyl)-2,3-dichloro-4-(2-(3-phenoxyphenyl)propoxy)benzamide], for which the half-maximal inhibitory concentration (IC50) was 0.1 to 0.5 µM.
Then `NCc1ccc(S(=O)(=O)NC(=O)c2ccc(OCc3cccc(Oc4ccccc4)c3)c(Cl)c2Cl)cc1` [N-((4-(aminomethyl)phenyl)sulfonyl)-2,3-dichloro-4-((3-phenoxybenzyl)oxy)benzamide], with < 0.1 µM; and `CC(Oc1ccc(C(=O)NS(=O)(=O)c2ccc(CN)cc2)c(F)c1F)c1cccc(Oc2cccnc2)c1` (centres unmarked) [N-((4-(aminomethyl)phenyl)sulfonyl)-2,3-difluoro-4-(1-(3-(pyridin-3-yloxy)phenyl)ethoxy)benzamide], with < 0.1 µM; and `CC(Oc1ccc(C(=O)NS(=O)(=O)c2ccc(CN)cc2)c(F)c1F)c1cccc(Oc2ccccc2)c1` (centres unmarked) [N-((4-(aminomethyl)phenyl)sulfonyl)-2,3-difluoro-4-(1-(3-phenoxyphenyl)ethoxy)benzamide], with < 0.1 µM.
Then `NCc1ccc(S(=O)(=O)NC(=O)c2ccc(OCc3ccc(Oc4ccccc4)cc3)c(F)c2F)cc1` [N-((4-(aminomethyl)phenyl)sulfonyl)-2,3-difluoro-4-((4-phenoxybenzyl)oxy)benzamide], with > 0.5 µM.
As for `CC(Oc1ccc(C(=O)NS(=O)(=O)c2ccc(CN)cc2)cc1C(F)(F)F)c1cccc(Oc2cnn(C)c2)c1` (centres unmarked) [N-((4-(aminomethyl)phenyl)sulfonyl)-4-(1-(3-((1-methyl-1H-pyrazol-4-yl)oxy)phenyl)ethoxy)-3-(trifluoromethyl)benzamide], the IC50 was > 0.5 µM.
For `CCCC(C)COc1cccc(C(C)Oc2ccc(C(=O)NS(=O)(=O)c3ccc(CN)cc3)cc2C(F)(F)F)c1` (centres unmarked) [N-((4-(aminomethyl)phenyl)sulfonyl)-4-(1-(3-((2-methylpentyl)oxy)phenyl)ethoxy)-3-(trifluoromethyl)benzamide] the value was > 0.5 µM; for `CC(Oc1ccc(C(=O)NS(=O)(=O)c2ccc(CN)cc2)cc1C(F)(F)F)c1cccc(OCC2CCCC2)c1` (centres unmarked) [N-((4-(aminomethyl)phenyl)sulfonyl)-4-(1-(3-(cyclopentylmethoxy)phenyl)ethoxy)-3-(trifluoromethyl)benzamide], > 0.5 µM.
